PubChem BioAssay AID1745844 (Carcinogenic Potency Database (CPDB), 2022)

System: rodent lifetime carcinogenesis bioassay, tumor incidence TD50
Test: chronic cancer bioassays in animals – CPDB, compiled studies (AID 1745844)
Conditions: mouse, strain B6C3F1, males, inhaled

SMILES: C=CC=C
- TD50 (site: Harderian gland, lesion: adenocarcinoma + adenocarcinoma, bilateral, dosed 52 weeks, study length 104 weeks): 88.9 mg/kg/day
- TD50 (site: Harderian gland, lesion: adenocarcinoma + adenoma + adenocarcinoma, bilateral + adenoma, bilateral, dosed 13 weeks, study length 104 weeks): 11.7 mg/kg/day
- TD50 (site: Harderian gland, lesion: adenocarcinoma + adenoma + adenocarcinoma, bilateral + adenoma, bilateral, dosed 26 weeks, study length 104 weeks): 22.7 mg/kg/day
- TD50 (site: Harderian gland, lesion: adenocarcinoma + adenoma + adenocarcinoma, bilateral + adenoma, bilateral, dosed 52 weeks, study length 104 weeks): 13.1 mg/kg/day
- TD50 (site: Harderian gland, lesion: adenocarcinoma + adenoma + adenoma, bilateral, dosed 40 weeks, study length 104 weeks): 17.5 mg/kg/day
- TD50 (site: Harderian gland, lesion: adenocarcinoma + adenoma + adenoma, bilateral, dosed 82 weeks, study length 104 weeks): 26.1 mg/kg/day
- TD50 (site: Harderian gland, lesion: adenocarcinoma, dosed 40 weeks, study length 104 weeks): 531 mg/kg/day
- TD50 (site: Harderian gland, lesion: adenocarcinoma, dosed 82 weeks, study length 104 weeks): 221 mg/kg/day
- TD50 (site: Harderian gland, lesion: adenoma + adenoma, bilateral, dosed 13 weeks, study length 104 weeks): 14.9 mg/kg/day
- TD50 (site: Harderian gland, lesion: adenoma + adenoma, bilateral, dosed 26 weeks, study length 104 weeks): 22.7 mg/kg/day
- TD50 (site: Harderian gland, lesion: adenoma + adenoma, bilateral, dosed 40 weeks, study length 104 weeks): 18 mg/kg/day
- TD50 (site: Harderian gland, lesion: adenoma + adenoma, bilateral, dosed 52 weeks, study length 104 weeks): 14.9 mg/kg/day
- TD50 (site: Harderian gland, lesion: adenoma + adenoma, bilateral, dosed 82 weeks, study length 104 weeks): 27.6 mg/kg/day
- TD50 (site: Zymbal's gland, lesion: adenoma + carcinoma, dosed 13 weeks, study length 104 weeks): 223 mg/kg/day
- TD50 (site: Zymbal's gland, lesion: adenoma + carcinoma, dosed 26 weeks, study length 104 weeks): 135 mg/kg/day
- TD50 (site: Zymbal's gland, lesion: adenoma + carcinoma, dosed 40 weeks, study length 104 weeks): 647 mg/kg/day
- TD50 (site: Zymbal's gland, lesion: carcinoma, dosed 13 weeks, study length 104 weeks): 336 mg/kg/day
- TD50 (site: Zymbal's gland, lesion: carcinoma, dosed 26 weeks, study length 104 weeks): 135 mg/kg/day
- TD50 (site: Zymbal's gland, lesion: carcinoma, dosed 40 weeks, study length 104 weeks): 625 mg/kg/day
- TD50 (site: all sites + brain + forestomach + Harderian gland + heart + kidney + liver + lung + preputial gland, lesion: histiocytic sarcoma + malignant lymphoma, mixed type + malignant lymphoma, lymphocytic type + malignant lymphoma + olfactory lob, dosed 13 weeks, study length 104 weeks): 7 mg/kg/day
- TD50 (site: all sites + brain + forestomach + Harderian gland + heart + kidney + liver + lung + preputial gland, lesion: histiocytic sarcoma + malignant lymphoma, mixed type + malignant lymphoma, lymphocytic type + malignant lymphoma + olfactory lob, dosed 26 weeks, study length 104 weeks): 12.6 mg/kg/day
- TD50 (site: all sites + forestomach + Harderian gland + heart + kidney + liver + lung + preputial gland, lesion: histiocytic sarcoma + malignant lymphoma, histiocytic type + malignant lymphoma, mixed type + malignant lymphoma, lymphocytic, dosed 82 weeks, study length 104 weeks): 10.7 mg/kg/day
- TD50 (site: all sites + forestomach + Harderian gland + heart + kidney + liver + lung + preputial gland, lesion: histiocytic sarcoma + malignant lymphoma, mixed type + malignant lymphoma, lymphocytic type + malignant lymphoma + squamous-cell, dosed 40 weeks, study length 104 weeks): 10.9 mg/kg/day
- TD50 (site: all sites + forestomach + Harderian gland + heart + kidney + liver + lung + preputial gland, lesion: histiocytic sarcoma + malignant lymphoma, mixed type + malignant lymphoma, lymphocytic type + malignant lymphoma + squamous-cell, dosed 52 weeks, study length 104 weeks): 6.12 mg/kg/day
- TD50 (site: all sites + forestomach + heart + lung, lesion: malignant lymphoma, NOS + papilloma, NOS + squamous-cell papilloma + hemangiosarcoma + alveolar/bronchiolar adenoma + alveolar/bro, dosed 60 weeks, study length 60 weeks): 28.8 mg/kg/day
- TD50 (site: all sites, lesion: hemangioma + hemangiosarcoma, dosed 13 weeks, study length 104 weeks): 16.9 mg/kg/day
- TD50 (site: all sites, lesion: hemangioma + hemangiosarcoma, dosed 26 weeks, study length 104 weeks): 17.7 mg/kg/day
- TD50 (site: all sites, lesion: hemangioma + hemangiosarcoma, dosed 40 weeks, study length 104 weeks): 17.3 mg/kg/day
- TD50 (site: all sites, lesion: hemangioma + hemangiosarcoma, dosed 52 weeks, study length 104 weeks): 11.1 mg/kg/day
- TD50 (site: all sites, lesion: hemangioma + hemangiosarcoma, dosed 82 weeks, study length 104 weeks): 38 mg/kg/day
- TD50 (site: all sites, lesion: hemangioma, dosed 13 weeks, study length 104 weeks): 45.8 mg/kg/day
- TD50 (site: all sites, lesion: hemangioma, dosed 40 weeks, study length 104 weeks): 95.2 mg/kg/day
- TD50 (site: all sites, lesion: hemangiosarcoma, dosed 13 weeks, study length 104 weeks): 21.9 mg/kg/day
- TD50 (site: all sites, lesion: hemangiosarcoma, dosed 26 weeks, study length 104 weeks): 17.7 mg/kg/day
- TD50 (site: all sites, lesion: hemangiosarcoma, dosed 40 weeks, study length 104 weeks): 20.8 mg/kg/day
- TD50 (site: all sites, lesion: hemangiosarcoma, dosed 52 weeks, study length 104 weeks): 11.9 mg/kg/day
- TD50 (site: all sites, lesion: hemangiosarcoma, dosed 82 weeks, study length 104 weeks): 45.5 mg/kg/day
- TD50 (site: all sites, lesion: histiocytic sarcoma + malignant lymphoma, histiocytic type + malignant lymphoma, mixed type + malignant lymphoma, lymphocytic, dosed 82 weeks, study length 104 weeks): 63.5 mg/kg/day
- TD50 (site: all sites, lesion: histiocytic sarcoma + malignant lymphoma, mixed type + malignant lymphoma, lymphocytic type + malignant lymphoma, dosed 13 weeks, study length 104 weeks): 26.2 mg/kg/day
- TD50 (site: all sites, lesion: histiocytic sarcoma + malignant lymphoma, mixed type + malignant lymphoma, lymphocytic type + malignant lymphoma, dosed 26 weeks, study length 104 weeks): 28.8 mg/kg/day
- TD50 (site: all sites, lesion: histiocytic sarcoma + malignant lymphoma, mixed type + malignant lymphoma, lymphocytic type + malignant lymphoma, dosed 40 weeks, study length 104 weeks): 57.1 mg/kg/day
- TD50 (site: all sites, lesion: histiocytic sarcoma + malignant lymphoma, mixed type + malignant lymphoma, lymphocytic type + malignant lymphoma, dosed 52 weeks, study length 104 weeks): 27.6 mg/kg/day
- TD50 (site: all sites, lesion: histiocytic sarcoma, dosed 13 weeks, study length 104 weeks): 91.1 mg/kg/day
- TD50 (site: all sites, lesion: histiocytic sarcoma, dosed 26 weeks, study length 104 weeks): 396 mg/kg/day
- TD50 (site: all sites, lesion: histiocytic sarcoma, dosed 40 weeks, study length 104 weeks): 128 mg/kg/day
- TD50 (site: all sites, lesion: histiocytic sarcoma, dosed 52 weeks, study length 104 weeks): 110 mg/kg/day
- TD50 (site: all sites, lesion: histiocytic sarcoma, dosed 82 weeks, study length 104 weeks): 157 mg/kg/day
- TD50 (site: all sites, lesion: malignant lymphoma, NOS, dosed 60 weeks, study length 60 weeks): 105 mg/kg/day
- TD50 (site: all sites, lesion: malignant lymphoma, histiocytic type + malignant lymphoma, mixed type + malignant lymphoma, lymphocytic type + malignant lymph, dosed 82 weeks, study length 104 weeks): 99.8 mg/kg/day
- TD50 (site: all sites, lesion: malignant lymphoma, lymphocytic type, dosed 13 weeks, study length 104 weeks): 66.8 mg/kg/day
- TD50 (site: all sites, lesion: malignant lymphoma, lymphocytic type, dosed 26 weeks, study length 104 weeks): 46 mg/kg/day
- TD50 (site: all sites, lesion: malignant lymphoma, lymphocytic type, dosed 40 weeks, study length 104 weeks): 142 mg/kg/day
- TD50 (site: all sites, lesion: malignant lymphoma, lymphocytic type, dosed 52 weeks, study length 104 weeks): 129 mg/kg/day
- TD50 (site: all sites, lesion: malignant lymphoma, lymphocytic type, dosed 82 weeks, study length 104 weeks): 157 mg/kg/day
- TD50 (site: all sites, lesion: malignant lymphoma, mixed type + malignant lymphoma, lymphocytic type + malignant lymphoma, dosed 13 weeks, study length 104 weeks): 34.9 mg/kg/day
